The values below come from patent publication US10017497B2, “Pyrrolidine GPR40 modulators for the treatment of diseases such as diabetes” (BRISTOL-MYERS SQUIBB COMPANY, priority 2014, dated 2018).

As a reminder, the EC50 is the concentration giving half of the maximal effect.

The target in assay [1] is T1, hGPR40 (Homo sapiens, UniProt O14842). Briefly: GPR40 IP-One HTRF assay in HEK293/GPR40 inducible cell lines (hGPR40 IP1 EC50). The class given is cell-based. Further details: expressed in transfected cells. As to conditions: HEK293 cells with tetracycline-inducible human GPR40, IP-One HTRF. The method, then:
GPR40 IP-One HTRF Assays in HEK293/GPR40 Inducible Cell Lines
Human, mouse and rat GPR40-mediated intracellular IP-One HTRF assays were established using human embryonic kidney HEK293 cells stably transfected with a tetracycline-inducible human, mouse or rat GPR40 receptor. Cells were routinely cultured in growth medium containing DMEM (Gibco Cat. #12430-047), 10% qualified FBS (Sigma, Cat. #F2442), 200 μg/mL hygromycin (Invitrogen, Cat. #16087-010) and 1.5 μg/mL blasticidin (Invitrogen, Cat. #R210-01). About 12-15 million cells were passed into a T175 tissue culture flask (BD Falcon 353112) with growth medium and incubated for 16-18 hours (overnight) at 37° C. with 5% CO2. The next day, assay medium was exchanged with growth medium containing 1000 ng/mL of tetracycline (Fluka Analytical, Cat. #87128) to induce GPR40 expression for 18-24 hours at 37° C. incubator with 5% CO2. After induction, the cells were washed with PBS (Gibco, Cat. #14190-036) and detached with Cell Stripper (Cellgro, Cat. #25-056-CL). 10-20 mL growth medium were added to the flask and cells were collected in 50 mL tubes (Falcon, Cat. #352098) and spun at 1000 RPM for 5 minutes. Culture medium was aspirated and the cells were resuspended in 10 mL of 1× IP-One Stimulation Buffer from the Cisbio IP-One kit (Cisbio, Cat. #62IPAPEJ). The cells were diluted to 1.4×10^6 cells/mL in Stimulation Buffer.
Test compounds were 3-fold, 11-point serially diluted in DMSO in a REMP assay plate (Matrix Cat. #4307) by Biocel (Agilent). The compounds were transferred into an Echo plate (Labcyte, Cat. #LP-0200) and 20 nL of diluted compounds were transferred to an assay plate (proxi-plate from Perkin Elmer, Cat. #6008289) by Echo acoustic nano dispenser (Labcyte, model ECHO550). 14 μL of the diluted cells were then added to the assay plate by Thermo (SN 836 330) Combi Drop and incubated at room temperature for 45 minutes. Then 3 μL of IP1 coupled to dye D2 from the Cisbio IP-One kit were added to the assay plate followed by 3 μL of Lumi4-Tb cryptate K from the kit. The plate was further incubated at room for 1 hour before reading on the Envision (Perkin Elmer Mode12101) with an HTRF protocol. Activation data for the test compound over a range of concentrations was plotted as percentage activation of the test compound (100%=maximum response). After correcting for background [(sample read-mean of low control)/(mean of high control-mean of low control)](low control is DMSO without any compound), EC50 values were determined. […] The maximal Y value observed (% Ymax) was calculated relative to a BMS standard reference compound at a final concentration of 0.625 μM.
For orientation: Time-resolved FRET reads energy transfer from a long-lived donor to a nearby acceptor.

Assay [2] deals with T1, hGPR40. The assay is described as follows: FDSS-based intracellular calcium assay (hGPR40 EC50). The assay is classed as cell-based. Further details: 3xFLAG; expressed in transfected cells. The conditions noted are these: cells expressing GPR40, intracellular Ca2+ response, FDSS reader. The protocol: FDSS-Based Intracellular Calcium Assay
Cell lines expressing GPR40 are generated using the pDEST-3×FLAG gene expression system and are cultured in culture medium comprising the following components: F12 (Gibco #11765), 10% lipid deprived fetal bovine serum, 250 μg/mL zeocin and 500 μg/mL G418. To conduct the fluorescent imaging plate reader (FLIPR)-based calcium flux assay to measure intracellular Ca^2+ response, cells expressing GPR40 are plated on 384 well plates (BD Biocoat #356697) at a density of 20,000 cells/20 μL medium per well in phenol red and serum-free DMEM (Gibco #21063-029) and incubated overnight. Using BD kit #s 80500-310 or -301, the cells are incubated with 20 μL per well of Hank's buffered salt solution with 1.7 mM probenecid and Fluo-3 at 37° C. for 30 min. Compounds are dissolved in DMSO and diluted to desired concentrations with assay buffer and added to the cells as 3× solution (20 μL per well). Run fluorescence/luminescence reader FDSS (Hamamatsu) to read intracellular Ca^2+ response.
(In general: Calcium flux is commonly read through the fluorescence of an indicator in the cells.)

T1 sequence (O14842 whole entry): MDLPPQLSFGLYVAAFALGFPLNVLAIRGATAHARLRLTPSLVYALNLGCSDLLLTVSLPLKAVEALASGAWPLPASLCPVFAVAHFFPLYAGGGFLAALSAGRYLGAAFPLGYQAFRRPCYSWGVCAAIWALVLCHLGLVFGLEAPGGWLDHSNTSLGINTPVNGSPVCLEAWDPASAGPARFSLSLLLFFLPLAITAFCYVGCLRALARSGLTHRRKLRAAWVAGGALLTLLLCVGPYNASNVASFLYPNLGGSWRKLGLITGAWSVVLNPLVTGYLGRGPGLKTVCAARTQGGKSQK

For the molecule `COc1cc(N2CC[C@@H](Oc3cnc(N4C[C@H](OC)[C@@H](C)[C@@H]4CC(=O)O)cn3)[C@H](C)C2)c(Cl)cn1` [Example 1, 2-((2S,3S,4R)-1-(5-((3R,4R)-1-(5-Chloro-2-methoxypyridin-4-yl)-3-methylpiperidin-4-yloxy)pyrazin-2-yl)-4-methoxy-3-methylpyrrolidin-2-yl)acetic acid], the results for the EC50 on hGPR40 [1] and at hGPR40 [2] were 14 nM and 72 nM, respectively.
For `COCCCO[C@H]1CN(c2cnc(O[C@@H]3CCN(c4cc(OC)ncc4Cl)C[C@H]3C)cn2)[C@@H](CC(=O)O)[C@@H]1C` [Example 2, 2-((2S,3S,4R)-1-(5-((3R,4R)-1-(5-Chloro-2-methoxypyridin-4-yl)-3-methylpiperidin-4-yloxy)pyrazin-2-yl)-4-(3-methoxypropoxy)-3-methylpyrrolidin-2-yl)acetic acid] the same measures were 4 nM and 43 nM.
For `CCOc1ccc(F)c(N2CC[C@@H](Oc3cnc(N4C[C@H](OC)[C@@H](C)[C@@H]4CC(=O)O)cn3)[C@H](C)C2)c1` [Example 3, 2-((2S,3S,4R)-1-(5-((3R,4R)-1-(5-Ethoxy-2-fluorophenyl)-3-methylpiperidin-4-yloxy)pyrazin-2-yl)-4-methoxy-3-methylpyrrolidin-2-yl)acetic acid] the same measures were 21 nM and 42 nM.
`CCOc1ccc(F)c(N2CC[C@@H](Oc3cnc(N4C[C@H](OCCCOC)[C@@H](C)[C@@H]4CC(=O)O)cn3)[C@H](C)C2)c1` [Example 4, 2-((2S,3S,4R)-1-(5-((3R,4R)-1-(5-Ethoxy-2-fluorophenyl)-3-methylpiperidin-4-yloxy)pyrazin-2-yl)-4-(3-methoxypropoxy)-3-methylpyrrolidin-2-yl)acetic acid]: the EC50 on hGPR40 [2] turned out to be 45 nM.
On the same count and under the same terms, in the case of `CCOc1ccc(F)c(N2CC[C@@H](Oc3cnc(N4CC(OCCCOC)C(C)C4CC(=O)O)cn3)[C@H](C)C2)c1` (stereo partly drawn) [Example 5, 2-(1-(5-(((3R,4R)-1-(5-Ethoxy-2-fluorophenyl)-3-methylpiperidin-4-yl)oxy)pyrazin-2-yl)-4-(3-methoxypropoxy)-3-methylpyrrolidin-2-yl)acetic acid] it was 837 nM.
In the case of `COc1cc(N2CC[C@@H](Oc3cnc(N4C[C@H](OC)C[C@@H]4CC(=O)O)cn3)[C@H](C)C2)c(Cl)cn1` [Example 6, 2-((2R,4R)-1-(5-((3R,4R)-1-(5-Chloro-2-methoxypyridin-4-yl)-3-methylpiperidin-4-yloxy)pyrazin-2-yl)-4-methoxypyrrolidin-2-yl)acetic acid], the EC50 turned out to be 44 nM on hGPR40 [1] and 150 nM at hGPR40 [2].
Take `COc1cc(N2CC[C@@H](Oc3cnc(N4C[C@H](OC)C[C@H]4CC(=O)O)cn3)[C@H](C)C2)c(Cl)cn1` [Example 7, 2-((2S,4R)-1-(5-((3R,4R)-1-(5-Chloro-2-methoxypyridin-4-yl)-3-methylpiperidin-4-yloxy)pyrazin-2-yl)-4-methoxypyrrolidin-2-yl)acetic acid]: the concentration giving a half-maximal response (EC50) at hGPR40 [2] came out at 3230 nM.
The same measure, in the same setting: with `COc1cc(N2CC[C@@H](Oc3cnc(N4C[C@H](C(F)(F)F)C[C@H]4CC(=O)O)cn3)[C@H](C)C2)c(Cl)cn1` [Example 8, 2-((2S,4R)-1-(5-((3R,4R)-1-(5-Chloro-2-methoxypyridin-4-yl)-3-methylpiperidin-4-yloxy)pyrazin-2-yl)-4-(trifluoromethyl)pyrrolidin-2-yl)acetic acid] the figure was 955 nM.
Same read-out and setting: in the case of `COc1cc(N2CC[C@@H](Oc3cnc(N4C[C@H](C(F)(F)F)C[C@@H]4CC(=O)O)cn3)[C@H](C)C2)c(Cl)cn1` [Example 9, 2-((2R,4R)-1-(5-((3R,4R)-1-(5-Chloro-2-methoxypyridin-4-yl)-3-methylpiperidin-4-yloxy)pyrazin-2-yl)-4-(trifluoromethyl)pyrrolidin-2-yl)acetic acid] it was 84 nM.
